Experimental data published in patent US11840686B2, “Modulation of prekallikrein (PKK) expression” (Ionis Pharmaceuticals, Inc., priority 2013, dated 2023).
Strand notation (5' to 3'): a small letter for the sugar, then the base; units joined by * are phosphorothioate-linked, units joined directly phosphodiester-linked; [ ] holds rarer units or linkages, { } end groups; capitals alone tell only the bases. e = 2'-O-(2-methoxyethyl) (MOE); [5mC] = 5-methylcytosine; d = 2'-deoxy (DNA)

The substances below were run on human PKK mRNA (assay: Antisense inhibition of human PKK mRNA in HepaRG cells, 5,000 nM (Example 2)). Details: HepaRG cells, 5,000 nM antisense oligonucleotide, human PKK mRNA; Table 18.
Format: cell-based
Procedure, shortened: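 qRT-PCR (RTS3454) read-out, RIBOGREEN-normalized; % inhibition vs untreated cells. HepaRG, 20,000 cells/well, electroporation, 5,000 nM ASO, ~24 h.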

Row | Substance | % inhibition [%]
1 | 548710 (DNA eT*eG*eT*dA*d[5mC]*dT*dA*dG*dT*dT*dT*d[5mC]*d[5mC]*eT*eA*eT; antisense) [compound 548710] | 0
2 | 548721 (DNA e[5mC]*eT*eG*dT*dA*d[5mC]*dT*dA*dG*dT*dT*dT*d[5mC]*e[5mC]*eT*eA*eT; antisense) [compound 548721] | 27

Same assay, conditions: HepaRG cells, 5,000 nM antisense oligonucleotide; 5-10-5 gapmers; Table 16

Row | Substance | % inhibition [%]
3 | 547703 (antisense e[5mC]*eA*eA*e[5mC]*eA*dT*d[5mC]*dA*d[5mC]*dT*dG*dT*dA*d[5mC]*d[5mC]*eT*eA*eT*eA*eA) [compound 547703] | 25
4 | 546917 (eA*eT*e[5mC]*eA*e[5mC]*dT*dG*dT*d[5mC]*d[5mC]*dT*dA*dT*dA*dA*e[5mC]*eT*eA*eT*eT; antisense) [compound 546917] | 63

Same assay, conditions: HepaRG cells, 5,000 nM antisense oligonucleotide; 5-10-5 gapmers; Table 17

Row | Substance | % inhibition [%]
5 | 547743 (eG*eG*eT*eG*eG*dT*dG*dG*dG*dA*dT*dT*dG*dG*dT*eG*eG*e[5mC]*eG*eG; antisense) [compound 547743] | 61
6 | 547023 (eG*eA*eT*eT*eG*dG*dT*dG*dG*d[5mC]*dG*dG*dG*dA*dT*e[5mC]*eG*eG*eT*eG; antisense) [compound 547023] | 91
7 | 547024 (eG*eG*eA*eT*eT*dG*dG*dT*dG*dG*d[5mC]*dG*dG*dG*dA*eT*e[5mC]*eG*eG*eT; antisense) [compound 547024] | 56

Same assay, conditions: HepaRG cells, electroporation with 5,000 nM antisense oligonucleotide, approximately 24 hours, PKK mRNA by RT-PCR (RTS3454), relative to untreated control cells; Table 5 experiment

Row | Substance | % inhibition [%]
8 | 546159 (eT*eA*eG*e[5mC]*eA*dA*dA*d[5mC]*dA*d[5mC]*d[5mC]*dT*dT*dG*dG*eG*eT*eG*eG*eA; antisense) [compound 546159] | 76

Same assay, conditions: HepaRG cells, electroporation with 5,000 nM antisense oligonucleotide, approximately 24 hours, PKK mRNA by RT-PCR (RTS3454), relative to untreated control cells; Table 6 experiment

Row | Substance | % inhibition [%]
9 | 547317 (antisense e[5mC]*eA*eG*eA*eA*dA*d[5mC]*dT*dG*d[5mC]*dA*d[5mC]*d[5mC]*dT*dG*eT*eT*e[5mC]*eG*eA) [compound 547317] | 75
10 | 547324 (antisense e[5mC]*eA*eT*eT*eG*d[5mC]*dT*dT*d[5mC]*dA*dA*dG*dG*dA*dA*eT*eG*eT*e[5mC]*e[5mC]) [compound 547324] | 76

Same assay, conditions: HepaRG cells, electroporation, 5,000 nM antisense oligonucleotide, approx. 24 hours, primer probe set RTS3454, relative to untreated control cells; Table 11

Row | Substance | % inhibition [%]
11 | 547508 (antisense e[5mC]*e[5mC]*e[5mC]*e[5mC]*eA*dG*dG*d[5mC]*dT*d[5mC]*dA*dG*dA*dA*dT*eT*eT*eG*eA*e[5mC]) [compound 547508] | 69
12 | 547516 (antisense eG*eA*eT*eG*e[5mC]*dA*dA*dA*dG*dA*dA*dG*dA*dT*dG*e[5mC]*e[5mC]*eA*e[5mC]*eT) [compound 547516] | 48
13 | 547499 (antisense e[5mC]*eT*e[5mC]*eT*eG*dG*dA*d[5mC]*dT*dG*d[5mC]*dT*dT*d[5mC]*dT*e[5mC]*eA*eT*eG*e[5mC]) [compound 547499] | 65
14 | 546372 (antisense eG*eA*eA*eT*eT*dT*dG*dA*d[5mC]*dT*dT*dG*dA*dA*d[5mC]*eT*e[5mC]*eA*eG*eG) [compound 546372] | 49
15 | 547518 (antisense eT*e[5mC]*e[5mC]*eT*eT*dA*dG*dG*dA*dT*dG*d[5mC]*dA*dA*dA*eG*eA*eA*eG*eA) [compound 547518] | 51
16 | 546359 (antisense eG*e[5mC]*eA*eT*e[5mC]*dT*dG*dA*dG*d[5mC]*dT*dT*dT*dT*d[5mC]*e[5mC]*eA*eT*e[5mC]*eA) [compound 546359] | 79
17 | 546387 (eA*eG*e[5mC]*eG*eG*dG*d[5mC]*dT*dT*d[5mC]*dA*dG*d[5mC]*d[5mC]*dA*eG*eA*e[5mC]*eA*eT; antisense) [compound 546387] | 77

Same assay, conditions: HepaRG cells, electroporation, 5,000 nM antisense oligonucleotide, approx. 24 hours, primer probe set RTS3454, relative to untreated control cells; Table 12

Row | Substance | % inhibition [%]
18 | 546425 (eG*eG*eT*e[5mC]*eA*dA*dT*d[5mC]*dT*dG*dA*d[5mC]*dT*dA*dG*eT*eG*eA*eA*eT; antisense) [compound 546425] | 69
19 | 547552 (antisense e[5mC]*eT*e[5mC]*e[5mC]*e[5mC]*d[5mC]*dA*dT*dG*d[5mC]*dA*dT*dA*d[5mC]*dT*e[5mC]*eG*e[5mC]*e[5mC]*eT) [compound 547552] | 53
20 | 547533 (antisense eT*eT*eT*eT*eG*d[5mC]*dT*dT*dG*dG*d[5mC]*dT*dT*d[5mC]*dA*eA*eT*eA*eT*eT) [compound 547533] | 23

Same assay, conditions: Table 7; HepaRG cells, electroporation with 5,000 nM antisense oligonucleotide, approx. 24 hours; PKK mRNA by RT-PCR (RTS3454), relative to untreated control cells

Row | Substance | % inhibition [%]
21 | 547405 (e[5mC]*eA*eA*eA*eG*dT*d[5mC]*dA*dA*d[5mC]*dT*d[5mC]*d[5mC]*d[5mC]*dG*eG*eG*eT*eA*eA; antisense) [compound 547405] | 47

Same assay, conditions: Table 8; HepaRG cells, electroporation with 5,000 nM antisense oligonucleotide, approx. 24 hours; PKK mRNA by RT-PCR (RTS3454), relative to untreated control cells

Row | Substance | % inhibition [%]
22 | 546277 (eT*eG*eT*eG*eT*d[5mC]*d[5mC]*d[5mC]*dA*dT*dA*d[5mC]*dG*d[5mC]*dA*eA*eT*e[5mC]*e[5mC]*eT; antisense) [compound 546277] | 90
23 | 547421 (e[5mC]*eA*eT*e[5mC]*e[5mC]*dA*dT*dA*dG*dA*dT*dA*dA*dT*d[5mC]*eT*eT*eA*eA*eG; antisense) [compound 547421] | 69
24 | 547437 (antisense e[5mC]*eT*e[5mC]*eT*e[5mC]*d[5mC]*d[5mC]*d[5mC]*dA*dA*dG*dA*dA*dG*dA*eG*eT*eT*eT*eG) [compound 547437] | 50
25 | 546256 (eT*e[5mC]*eA*eT*e[5mC]*dT*dT*dT*dG*dT*dG*d[5mC]*dA*dA*dG*eT*e[5mC]*eT*e[5mC]*eT; antisense) [compound 546256] | 83

Same assay, conditions: Table 9 experiment; HepaRG cells, 20,000 cells per well, electroporation with 5,000 nM antisense oligonucleotide, approx. 24 hours; PKK mRNA by RT-PCR (RTS3454), relative to untreated control cells

Row | Substance | % inhibition [%]
26 | 547476 (antisense e[5mC]*eA*eT*eT*eT*dG*dT*dT*dA*d[5mC]*d[5mC]*dA*dA*dA*dG*eG*eA*eA*eT*eA) [compound 547476] | 75
27 | 546327 (antisense eG*eG*eT*eT*eA*d[5mC]*d[5mC]*d[5mC]*dA*dA*d[5mC]*dA*dG*dT*dT*eG*eG*eT*eA*eT) [compound 546327] | 95
28 | 547459 (antisense eG*eA*eG*eT*eT*dT*dT*dA*dT*d[5mC]*dA*dA*dG*dG*d[5mC]*eG*eA*eT*eA*eT) [compound 547459] | 28
29 | 546316 (antisense eG*e[5mC]*e[5mC]*eT*eG*dG*dA*dG*dT*dT*dT*dT*dA*dT*d[5mC]*eA*eA*eG*eG*e[5mC]) [compound 546316] | 51

Same assay, conditions: Table 10 experiment; HepaRG cells, 20,000 cells per well, electroporation with 5,000 nM antisense oligonucleotide, approx. 24 hours; PKK mRNA by RT-PCR (RTS3454), relative to untreated control cells

Row | Substance | % inhibition [%]
30 | 547476 (antisense e[5mC]*eA*eT*eT*eT*dG*dT*dT*dA*d[5mC]*d[5mC]*dA*dA*dA*dG*eG*eA*eA*eT*eA) [compound 547476] | 71
31 | 546327 (antisense eG*eG*eT*eT*eA*d[5mC]*d[5mC]*d[5mC]*dA*dA*d[5mC]*dA*dG*dT*dT*eG*eG*eT*eA*eT) [compound 546327] | 84
32 | 547459 (antisense eG*eA*eG*eT*eT*dT*dT*dA*dT*d[5mC]*dA*dA*dG*dG*d[5mC]*eG*eA*eT*eA*eT) [compound 547459] | 51
33 | 546316 (antisense eG*e[5mC]*e[5mC]*eT*eG*dG*dA*dG*dT*dT*dT*dT*dA*dT*d[5mC]*eA*eA*eG*eG*e[5mC]) [compound 546316] | 60

Same assay, conditions: Table 13; human PKK mRNA in HepaRG cells; 5-10-5 gapmers

Row | Substance | % inhibition [%]
34 | 546840 (e[5mC]*eT*eG*eT*e[5mC]*d[5mC]*dT*dA*dT*dA*dA*d[5mC]*dT*d[5mC]*dT*eA*eA*e[5mC]*eA*eG; antisense) [compound 546840] | 53
35 | 546842 (eT*e[5mC]*eA*e[5mC]*eT*dG*dT*d[5mC]*d[5mC]*dT*dA*dT*dA*dA*d[5mC]*eT*e[5mC]*eT*eA*eA; antisense) [compound 546842] | 54
36 | 547577 (e[5mC]*eT*eA*eA*e[5mC]*dA*dG*dT*dA*dT*d[5mC]*dA*d[5mC]*dT*dG*eT*eA*e[5mC]*eT*eA; antisense) [compound 547577] | 79
37 | 546803 (e[5mC]*e[5mC]*e[5mC]*e[5mC]*eA*dT*dA*d[5mC]*dA*dT*d[5mC]*dT*dA*dT*dG*e[5mC]*eA*eA*eA*eT; antisense) [compound 546803] | 40

Same assay, conditions: human PKK mRNA in HepaRG cells; 5-10-5 gapmers; Table 14

Row | Substance | % inhibition [%]
38 | 547588 (eA*e[5mC]*eT*eA*eT*dA*dA*d[5mC]*dA*dG*dT*dA*dT*d[5mC]*dA*e[5mC]*eT*eG*eT*e[5mC]; antisense) [compound 547588] | 83
39 | 547593 (eT*eT*e[5mC]*e[5mC]*eT*dA*dT*dA*dA*d[5mC]*dT*dA*dT*dA*dA*e[5mC]*eA*eG*eT*eA; antisense) [compound 547593] | 29
40 | 546856 (eA*eA*e[5mC]*eT*eA*dT*dA*dA*d[5mC]*dA*dG*dT*dA*dT*d[5mC]*eA*e[5mC]*eT*eG*eT; antisense) [compound 546856] | 54

Same assay, conditions: human PKK mRNA, HepaRG cells, 5,000 nM antisense oligonucleotide, Table 18

Row | Substance | % inhibition [%]
41 | 548745 (DNA eA*eT*e[5mC]*eA*d[5mC]*dT*dG*dT*dA*d[5mC]*dT*dA*dG*eT*eT*eT*e[5mC]; antisense) [compound 548745] | 71
42 | 548748 (antisense eG*eT*eA*e[5mC]*dT*dA*dG*dT*dT*dT*d[5mC]*d[5mC]*dT*dA*eT*eA*eA*e[5mC]) [compound 548748] | 0

Same assay, conditions: human PKK mRNA, HepaRG cells; 5-10-5 motif oligonucleotides targeting SEQ ID NO: 1 and 10

Row | Substance | % inhibition [%]
43 | 546891 (e[5mC]*eT*eG*eT*e[5mC]*d[5mC]*dT*dA*dT*dG*dT*d[5mC]*dA*d[5mC]*dT*eG*eT*eA*e[5mC]*e[5mC]; antisense) [compound 546891] | 81
44 | 547676 (antisense e[5mC]*eT*eG*eT*e[5mC]*d[5mC]*dT*dA*dT*dA*dA*d[5mC]*dT*dA*dT*eA*eA*e[5mC]*eA*eA) [compound 547676] | 41
45 | 547646 (e[5mC]*eT*eA*eT*eA*dT*d[5mC]*dA*d[5mC]*dT*dG*dT*dA*d[5mC]*d[5mC]*eT*eA*eT*eA*eA; antisense) [compound 547646] | 23
46 | 547654 (eT*eA*eT*e[5mC]*eA*d[5mC]*dT*dG*dT*dA*d[5mC]*d[5mC]*dT*dA*dT*eA*eA*e[5mC]*eA*eG; antisense) [compound 547654] | 53
